The record followed here is US20240158446A1, “CYCLIC COMPOUND HAVING SELECTIVE INHIBITORY ACTION ON KRAS OVER HRAS AND NRAS” (CHUGAI SEIYAKU KABUSHIKI KAISHA, priority 2021, published 2024).

Experiment [1] addresses GDP-bound NRAS wild-type protein (Homo sapiens, UniProt P01111). In words: Binding to NRAS by surface plasmon resonance (SPR), Single Cycle Kinetics. The settings on record: SPR; GDP-bound NRAS wild-type protein vs GDP-bound KRAS wild-type protein; KD ratio class.
Experiment [2] has as its target GDP-bound HRAS wild-type protein (Homo sapiens, UniProt P01112). In words: Binding to HRAS by surface plasmon resonance (SPR), Single Cycle Kinetics. The settings on record: SPR; GDP-bound HRAS wild-type protein vs GDP-bound KRAS wild-type protein; KD ratio class. (In SPR one partner is held on a chip, and binding of the other changes the refractive index at the surface.)

For experiment [3], the target named is GDP-bound KRAS wild-type protein (Homo sapiens, UniProt P01116). In words: Binding to KRAS by surface plasmon resonance (SPR), Single Cycle Kinetics. The note with it: SPR, Single Cycle Kinetics, 1:1 binding model; GDP-bound KRAS wild-type protein; read-out: KRAS KD.
GDP-bound KRAS wild-type protein, sequence (P01116 whole entry): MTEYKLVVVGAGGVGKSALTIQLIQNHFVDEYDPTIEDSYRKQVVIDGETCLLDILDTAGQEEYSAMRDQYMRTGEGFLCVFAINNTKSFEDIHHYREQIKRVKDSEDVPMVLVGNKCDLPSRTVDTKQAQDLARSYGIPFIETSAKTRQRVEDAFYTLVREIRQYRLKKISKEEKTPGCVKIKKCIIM

GDP-bound HRAS wild-type protein, sequence (P01112 whole entry): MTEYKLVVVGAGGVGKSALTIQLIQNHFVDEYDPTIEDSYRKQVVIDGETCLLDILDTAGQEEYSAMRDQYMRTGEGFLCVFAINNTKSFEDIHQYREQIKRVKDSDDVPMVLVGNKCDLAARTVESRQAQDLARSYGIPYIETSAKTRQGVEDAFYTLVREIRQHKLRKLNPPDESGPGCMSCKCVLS
GDP-bound NRAS wild-type protein, sequence (P01111 whole entry): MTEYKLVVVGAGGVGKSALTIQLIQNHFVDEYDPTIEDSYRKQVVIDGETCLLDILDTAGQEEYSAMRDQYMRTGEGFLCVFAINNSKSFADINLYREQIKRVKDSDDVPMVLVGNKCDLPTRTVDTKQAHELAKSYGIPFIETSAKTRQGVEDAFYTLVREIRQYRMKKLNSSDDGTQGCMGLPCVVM

For orientation: Kd means the free concentration of one partner at which half of the binding sites on the other are occupied at equilibrium, for simple one-to-one binding. As to `CCO[C@@H]1C[C@H]2C(=O)NC3(CCC3)C(=O)N(C)[C@@H](C3CCCC3)C(=O)N(C)[C@H](C3CCCCC3)CC(=O)N(C)[C@@H](COC)C(=O)N[C@@H]([C@@H](C)CC)C(=O)N(C)CC(=O)N(C)[C@H]3C/C=C\CCN(C3=O)[C@@H](Cc3ccc(C(F)(F)F)cc3)C(=O)N(C)CC(=O)N[C@@H](CCc3cc(F)c(C(F)(F)F)c(F)c3)C(=O)N2C1` [PP1584], in experiment [1], the “NRAS/KRAS (ratio of KD value for NRAS to KD value for KRAS)” value is “B (a compound having 3 or more and less than 10 is denoted as B)”. Moreover, in experiment [2], the “HRAS/KRAS (ratio of KD value for HRAS to KD value for KRAS)” value was “B (a compound having 3 or more and less than 10 is denoted as B)”. The dissociation constant Kd in experiment [3] was 0.56 nM.
In the case of `CCO[C@@H]1C[C@H]2C(=O)NC3(CC(F)(F)C3)C(=O)N(C)[C@@H](C3CCCC3)C(=O)N(C)C(C3CCCCC3)CC(=O)N(C)[C@@H](COC)C(=O)N[C@@H]([C@@H](C)CC)C(=O)N(C)CC(=O)N(C)[C@H]3C/C=C\CCN(C3=O)[C@@H](Cc3ccc(C(F)(F)F)cc3)C(=O)N(C)CC(=O)N[C@@H](CCc3cc(F)c(C(F)(F)F)c(F)c3)C(=O)N2C1` (stereo partly drawn) [PP1586], in experiment [1], the “NRAS/KRAS (ratio of KD value for NRAS to KD value for KRAS)” value was “A (a compound having 10 or more and less than 20 is denoted as A)”. Also, the “HRAS/KRAS (ratio of KD value for HRAS to KD value for KRAS)” value in experiment [2] was “A (a compound having 10 or more and less than 20 is denoted as A)”. Also, the dissociation constant Kd in experiment [3] worked out at 0.76 nM.
As to `CCO[C@@H]1C[C@H]2C(=O)NC3(CCC3)C(=O)N(C)[C@@H](C(CC)CC)C(=O)N(C)C(C(C)C)CC(=O)N(C)[C@@H](CC)C(=O)N[C@@H]([C@@H](C)CC)C(=O)N(C)CC(=O)N(C)[C@H]3C/C=C\CCN(C3=O)[C@@H](Cc3ccc(C(F)(F)F)cc3)C(=O)N(C)CC(=O)N[C@@H](CCc3cc(F)c(C(F)(F)F)c(F)c3)C(=O)N2C1` (stereo partly drawn) [PP1589], the “NRAS/KRAS (ratio of KD value for NRAS to KD value for KRAS)” value in experiment [1] was “A (a compound having 10 or more and less than 20 is denoted as A)”. Also, in experiment [2], the “HRAS/KRAS (ratio of KD value for HRAS to KD value for KRAS)” value was “A (a compound having 10 or more and less than 20 is denoted as A)”. Also, in experiment [3], the equilibrium dissociation constant (Kd) came to 1.8 nM.
Consider `CCO[C@@H]1C[C@H]2C(=O)NC3(CCC3)C(=O)N(C)[C@@H](C3CCCC3)C(=O)N(C)C(C(C)C)CC(=O)N(C)[C@@H](CC)C(=O)N[C@@H]([C@@H](C)CC)C(=O)N(C)CC(=O)N(C)[C@H]3C/C=C\CCN(C3=O)[C@@H](Cc3ccc(C(F)(F)F)cc3)C(=O)N(C)CC(=O)N[C@@H](CCc3cc(F)c(C(F)(F)F)c(F)c3)C(=O)N2C1` (stereo partly drawn) [PP1590], for which the “NRAS/KRAS (ratio of KD value for NRAS to KD value for KRAS)” value in experiment [1] was “A (a compound having 10 or more and less than 20 is denoted as A)”. Further, the “HRAS/KRAS (ratio of KD value for HRAS to KD value for KRAS)” value in experiment [2] is “B (a compound having 3 or more and less than 10 is denoted as B)”. The Kd in experiment [3] is 0.29 nM.
As for `CCO[C@@H]1C[C@H]2C(=O)NC3(CC(F)(F)C3)C(=O)N(C)[C@@H](C(CC)CC)C(=O)N(C)C(C(C)C)CC(=O)N(C)[C@@H](CC)C(=O)N[C@@H]([C@@H](C)CC)C(=O)N(C)CC(=O)N(C)[C@H]3C/C=C\CCN(C3=O)[C@@H](Cc3ccc(C(F)(F)F)cc3)C(=O)N(C)CC(=O)N[C@@H](CCc3cc(F)c(C(F)(F)F)c(F)c3)C(=O)N2C1` (stereo partly drawn) [PP1591], the “NRAS/KRAS (ratio of KD value for NRAS to KD value for KRAS)” value in experiment [1] is “A (a compound having 10 or more and less than 20 is denoted as A)”. Also, the “HRAS/KRAS (ratio of KD value for HRAS to KD value for KRAS)” value in experiment [2] is “A (a compound having 10 or more and less than 20 is denoted as A)”. Further, the dissociation constant (Kd) in experiment [3] was determined as 4.6 nM.
With `CCO[C@@H]1C[C@H]2C(=O)NC3(CC(C)(C)C3)C(=O)N(C)[C@@H](C(CC)CC)C(=O)N(C)C(C(C)C)CC(=O)N(C)[C@@H](CC3CC3)C(=O)N[C@@H]([C@@H](C)CC)C(=O)N(C)CC(=O)N(C)[C@H]3C/C=C\CCN(C3=O)[C@@H](Cc3ccc(C(F)(F)F)cc3)C(=O)N(C)CC(=O)N[C@@H](CCc3cc(F)c(C(F)(F)F)c(F)c3)C(=O)N2C1` (stereo partly drawn) [PP1593], the “NRAS/KRAS (ratio of KD value for NRAS to KD value for KRAS)” value in experiment [1] was “A (a compound having 10 or more and less than 20 is denoted as A)”. In addition, the “HRAS/KRAS (ratio of KD value for HRAS to KD value for KRAS)” value in experiment [2] was “A (a compound having 10 or more and less than 20 is denoted as A)”. Also, in experiment [3], the Kd was 4.3 nM.
As for `CCO[C@@H]1C[C@H]2C(=O)NC3(CCC3)C(=O)N(C)[C@@H](C(CC)CC)C(=O)N(C)C(C(C)C)CC(=O)N(C)[C@@H](CC3CC3)C(=O)N[C@@H]([C@@H](C)CC)C(=O)N(C)CC(=O)N(C)[C@H]3C/C=C\CCN(C3=O)[C@@H](Cc3ccc(C(F)(F)F)cc3)C(=O)N(C)CC(=O)N[C@@H](CCc3cc(F)c(C(F)(F)F)c(F)c3)C(=O)N2C1` (stereo partly drawn) [PP1595], the “NRAS/KRAS (ratio of KD value for NRAS to KD value for KRAS)” value in experiment [1] is “A (a compound having 10 or more and less than 20 is denoted as A)”. Moreover, the “HRAS/KRAS (ratio of KD value for HRAS to KD value for KRAS)” value in experiment [2] is “A (a compound having 10 or more and less than 20 is denoted as A)”. Moreover, the Kd in experiment [3] worked out at 2.3 nM.
As for `CCO[C@@H]1C[C@H]2C(=O)NC3(CC(F)(F)C3)C(=O)N(C)[C@@H](C3CCCC3)C(=O)N(C)C(C(C)C)CC(=O)N(C)[C@@H](CC3CC3)C(=O)N[C@@H]([C@@H](C)CC)C(=O)N(C)CC(=O)N(C)[C@H]3C/C=C\CCN(C3=O)[C@@H](Cc3ccc(C(F)(F)F)cc3)C(=O)N(C)CC(=O)N[C@@H](CCc3cc(F)c(C(F)(F)F)c(F)c3)C(=O)N2C1` (stereo partly drawn) [PP1598], in experiment [1], the “NRAS/KRAS (ratio of KD value for NRAS to KD value for KRAS)” value is “A (a compound having 10 or more and less than 20 is denoted as A)”. Further, the “HRAS/KRAS (ratio of KD value for HRAS to KD value for KRAS)” value in experiment [2] was “A (a compound having 10 or more and less than 20 is denoted as A)”. Further, in experiment [3], the dissociation constant (Kd) worked out at 0.76 nM.
For `CCO[C@@H]1C[C@H]2C(=O)NC3(CCC3)C(=O)N(C)[C@@H](C3CCCC3)C(=O)N(C)[C@H](C(C)C)CC(=O)N(C)[C@@H](CC)C(=O)N[C@@H]([C@@H](C)CC)C(=O)N(C)CC(=O)N(C)[C@H]3C/C=C\CCN(C3=O)[C@@H](CC3CCCCC3)C(=O)N(C)CC(=O)N[C@@H](CCc3cc(F)c(C(F)(F)F)c(F)c3)C(=O)N2C1` [PP1601], the “NRAS/KRAS (ratio of KD value for NRAS to KD value for KRAS)” value in experiment [1] is “B (a compound having 3 or more and less than 10 is denoted as B)”. The “HRAS/KRAS (ratio of KD value for HRAS to KD value for KRAS)” value in experiment [2] was “A (a compound having 10 or more and less than 20 is denoted as A)”. The Kd in experiment [3] is 2.1 nM.
On to `CCO[C@@H]1C[C@H]2C(=O)NC3(CC(C)(C)C3)C(=O)N(C)[C@@H](C3CCCC3)C(=O)N(C)[C@H](C(C)C)CC(=O)N(C)[C@@H](CC)C(=O)N[C@@H]([C@@H](C)CC)C(=O)N(C)CC(=O)N(C)[C@H]3C/C=C\CCN(C3=O)[C@@H](CC3CCCCC3)C(=O)N(C)CC(=O)N[C@@H](CCc3cc(F)c(C(F)(F)F)c(F)c3)C(=O)N2C1` [PP1603], for which, in experiment [1], the “NRAS/KRAS (ratio of KD value for NRAS to KD value for KRAS)” value is “B (a compound having 3 or more and less than 10 is denoted as B)”. The “HRAS/KRAS (ratio of KD value for HRAS to KD value for KRAS)” value in experiment [2] was “B (a compound having 3 or more and less than 10 is denoted as B)”. Also, in experiment [3], the Kd amounted to 5.3 nM.
Consider `CCO[C@@H]1C[C@H]2C(=O)NC3(CC(C)(C)C3)C(=O)N(C)[C@@H](C(CC)CC)C(=O)N3CCC[C@@H]3CC(=O)N(C)[C@@H](CC)C(=O)N[C@@H]([C@@H](C)CC)C(=O)N(C)CC(=O)N(C)[C@H]3C/C=C\CCN(C3=O)[C@@H](Cc3ccc(C(F)(F)F)cc3)C(=O)N(C)CC(=O)N[C@@H](CCc3cc(F)c(C(F)(F)F)c(F)c3)C(=O)N2C1` [PP1605], for which, in experiment [1], the “NRAS/KRAS (ratio of KD value for NRAS to KD value for KRAS)” value was “A (a compound having 10 or more and less than 20 is denoted as A)”. Moreover, the “HRAS/KRAS (ratio of KD value for HRAS to KD value for KRAS)” value in experiment [2] was “A (a compound having 10 or more and less than 20 is denoted as A)”. Further, in experiment [3], the Kd was 0.79 nM.
